In the supplement of paper PMC10307832:

Key:
Experiment in all cases: relative viability (nuclei count vs DMSO), 5 days (fraction); higher = more cells survive
[1] = test system: NCI-H1915
Summary of the method: (§1)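 Relative viability divides the nuclei count in treated wells by that in vehicle wells. Lung cancer cell lines were seeded in 1536-well plates, dosed by pin tool the next day, and fixed and stained after 5 days in one step with final 0.05% Triton X-100, 1% formaldehyde and 1 ug/ml Hoechst. Dosing was a single drug or a fixed anchor-drug dose plus five library-drug doses (not always all listed) in √10 steps, and values are medians of duplicate plates imaged at 4×.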

[2] = test system: EPLC-272H
Summary of the method: as §1

[3] = test system: COR-L 105
Summary of the method: as §1

[4] = test system: UMC-11
Summary of the method: as §1

[5] = test system: NCI-H1755
Summary of the method: as §1

[6] = test system: SK-LU-1
Summary of the method: as §1

[7] = test system: LCLC-97TM1
Summary of the method: as §1

[8] = test system: NCI-H1792
Summary of the method: as §1

[9] = test system: NCI-H358
Summary of the method: as §1

[10] = test system: HOP-62
Summary of the method: as §1

[11] = test system: LXF-289
Summary of the method: as §1

[12] = test system: NCI-H1944
Summary of the method: as §1

[13] = test system: A-427
Summary of the method: as §1

[14] = test system: HCC-78
Summary of the method: as §1

[15] = test system: NCI-H1975
Summary of the method: as §1

[16] = test system: LU99A
Summary of the method: as §1

[17] = test system: NCI-H1793
Summary of the method: as §1

[18] = test system: NCI-H460
Summary of the method: as §1

[19] = test system: HCC-366
Summary of the method: as §1

[20] = test system: NCI-H2085
Summary of the method: as §1

[21] = test system: NCI-H2170
Summary of the method: as §1

[22] = test system: LC-2-ad
Summary of the method: as §1

Compound C[C@@H]1CN(CC(=O)Nc2ccc3c(c2)Cc2cccc(-c4cc(=O)cc(N5CCOCC5)o4)c2S3)C[C@H](C)O1 + Cc1nc(NC(=O)N2CCC[C@H]2C(N)=O)sc1-c1ccnc(C(C)(C)C(F)(F)F)c1 [Alpelisib] (partner 2 µM) has a relative viability ([1]; first compound 0.04 µM) of 1.02, a relative viability ([1]; first compound 0.1265 µM) of 1.08 and a relative viability ([1]; first compound 0.4 µM) of 1.1. The relative viability ([1]; first compound 4 µM) was 1.04, the relative viability ([2]; first compound 0.04 µM) was 0.928 and the relative viability ([2]; first compound 0.1265 µM) was 0.806. It also gave a relative viability ([2]; first compound 0.4 µM) of 0.857, a relative viability ([2]; first compound 4 µM) of 1.1 and a relative viability ([3]; first compound 0.04 µM) of 1.09. It also gave a relative viability ([3]; first compound 0.1265 µM) of 0.998, a relative viability ([3]; first compound 0.4 µM) of 1.04 and a relative viability ([3]; first compound 4 µM) of 0.896. It also gave a relative viability ([4]; first compound 0.04 µM) of 1.1, a relative viability ([4]; first compound 0.1265 µM) of 1.02 and a relative viability ([4]; first compound 0.4 µM) of 1.1. For the same compound, the relative viability ([4]; first compound 4 µM) was 0.737, the relative viability ([5]; first compound 0.04 µM) was 0.934 and the relative viability ([5]; first compound 0.1265 µM) was 0.88. For the same compound, the relative viability ([5]; first compound 0.4 µM) was 0.845, the relative viability ([5]; first compound 4 µM) was 0.863 and the relative viability ([6]; first compound 0.04 µM) was 1.21. It also gave a relative viability ([6]; first compound 0.1265 µM) of 1.05, a relative viability ([6]; first compound 0.4 µM) of 0.936 and a relative viability ([6]; first compound 4 µM) of 0.645. It also gave a relative viability ([7]; first compound 0.1265 µM) of 0.225, a relative viability ([7]; first compound 0.4 µM) of 0.237 and a relative viability ([7]; first compound 4 µM) of 0.238. It also gave a relative viability ([8]; first compound 0.04 µM) of 0.685, a relative viability ([8]; first compound 0.1265 µM) of 0.677 and a relative viability ([8]; first compound 0.4 µM) of 0.707. The relative viability ([8]; first compound 4 µM) was 0.665, the relative viability ([9]; first compound 0.04 µM) was 1.12 and the relative viability ([9]; first compound 0.1265 µM) was 0.859. The relative viability ([9]; first compound 0.4 µM) was 0.73, the relative viability ([9]; first compound 4 µM) was 0.491 and the relative viability ([10]; first compound 0.04 µM) was 1.08. The relative viability ([10]; first compound 0.1265 µM) was 1.05, the relative viability ([10]; first compound 0.4 µM) was 0.939 and the relative viability ([10]; first compound 4 µM) was 1.07. It also gave a relative viability ([11]; first compound 0.04 µM) of 1.04, a relative viability ([11]; first compound 0.1265 µM) of 1 and a relative viability ([11]; first compound 0.4 µM) of 0.996. The relative viability ([11]; first compound 4 µM) was 1.02, the relative viability ([12]; first compound 0.1265 µM) was 0.826 and the relative viability ([12]; first compound 0.4 µM) was 0.86. It also gave a relative viability ([12]; first compound 4 µM) of 0.814, a relative viability ([13]; first compound 0.04 µM) of 1.12 and a relative viability ([13]; first compound 0.1265 µM) of 1.08. The relative viability ([13]; first compound 0.4 µM) was 1.07, the relative viability ([13]; first compound 4 µM) was 1.07 and the relative viability ([14]; first compound 0.04 µM) was 0.303. It also gave a relative viability ([14]; first compound 0.1265 µM) of 0.3, a relative viability ([14]; first compound 0.4 µM) of 0.278 and a relative viability ([14]; first compound 4 µM) of 0.33. For the same compound, the relative viability ([15]; first compound 0.04 µM) was 0.666, the relative viability ([15]; first compound 0.1265 µM) was 0.587 and the relative viability ([15]; first compound 0.4 µM) was 0.551. The relative viability ([15]; first compound 4 µM) was 0.438, the relative viability ([16]; first compound 0.04 µM) was 0.475 and the relative viability ([16]; first compound 0.1265 µM) was 0.532. For the same compound, the relative viability ([16]; first compound 0.4 µM) was 0.567, the relative viability ([16]; first compound 4 µM) was 0.566 and the relative viability ([17]; first compound 0.04 µM) was 0.717. It also gave a relative viability ([17]; first compound 0.1265 µM) of 0.614, a relative viability ([17]; first compound 0.4 µM) of 0.514 and a relative viability ([17]; first compound 4 µM) of 0.585. For the same compound, the relative viability ([18]; first compound 0.04 µM) was 0.517, the relative viability ([18]; first compound 0.1265 µM) was 0.416 and the relative viability ([18]; first compound 0.4 µM) was 0.355. It also gave a relative viability ([18]; first compound 4 µM) of 0.265, a relative viability ([19]; first compound 0.04 µM) of 0.379 and a relative viability ([19]; first compound 0.1265 µM) of 0.414. It also gave a relative viability ([19]; first compound 0.4 µM) of 0.315, a relative viability ([19]; first compound 4 µM) of 0.368 and a relative viability ([20]; first compound 0.04 µM) of 0.99. The relative viability ([20]; first compound 0.1265 µM) was 0.897, the relative viability ([20]; first compound 0.4 µM) was 0.793 and the relative viability ([20]; first compound 4 µM) was 0.7. The relative viability ([21]; first compound 0.1265 µM) was 0.761, the relative viability ([21]; first compound 0.4 µM) was 0.727 and the relative viability ([21]; first compound 4 µM) was 0.751. The relative viability ([22]; first compound 0.04 µM) was 1.02, the relative viability ([22]; first compound 0.1265 µM) was 0.864 and the relative viability ([22]; first compound 0.4 µM) was 0.77. It also gave a relative viability ([22]; first compound 4 µM) of 0.848.
